Several values for one entry are separate records, joined by “and”; a condition that tells them apart may be missing. Identical values can stand only once. Like-named read-outs stand apart in the source and are kept apart here.
Key:
[1] = test system: mice at terminal stages of botulism (2.2x LD50 BoNT/A, i.v.); details: mouse, in vivo
[2] = cited from earlier work; for Brain penetration: in vivo
[3] = test system: animal models of botulism; details: in vivo; cited from earlier work
[4] = test system: patients with LEMS; details: human, in vivo; cited from earlier work
[5] = mouse, in vivo, sc, 2 mg/kg; cited from earlier work
[6] = test system: mice at terminal stages of botulism (2.2x LD50 BoNT/A, i.v.); details: mouse, in vivo; remark: listed apart in the source
[7] = test system: healthy mice; details: mouse, in vivo
[8] = in vivo, po; cited from earlier work

## [2H]c1nc([2H])c(N)c(N)c1[2H] [3,4-DAP-d3, 3,4-diaminopyridine-d3]
[1]
  Relative effects on TV versus RR: more potent effects on TV
[2]; not told
  CNS permeability / brain penetration: low central nervous system (CNS) permeability

## Nc1ccncc1F [3F-4AP, 4-amino-3-fluoropyridine]
[1]
  Relative effects on TV versus RR: more potent effects on RR
  Symptomatic benefits compared with the other effective aminopyridines: modest and short in duration
[2]; not told
  CNS permeability: CNS-permeable

## Nc1cncc(N)c1N [3,4,5-TAP, 3,4,5-triaminopyridine]
[1]
  Relative effects on TV versus RR: increased TV and RR by roughly equal proportions
[2]
  Brain penetration: poor brain penetration

## Nc1ccncc1N [3,4-DAP, 3,4-diaminopyridine]
[3]
  Exposure required for reversal of botulism symptoms: 125 ng/mL
[4]
  Exposure needed for typical patients with LEMS: 32 ng/mL
[1]
  Effect on ventilatory parameters (TV, RR, MV, mid-expiratory flow, peak inspiratory flow, peak expiratory flow, expired volume, enhanced pause): significantly improved
  Lowest dose to produce an unambiguous peak response in MV: 0.25 mg/kg
  Relative effects on TV versus RR: more potent effects on TV
  Time after treatment at which MV significantly improved: 10 min
  Time after treatment to maximum effect on MV: 25 to 30 min
  Time after which ventilatory parameters began to decline: approximately 30 minutes
  Time up to which all ventilatory parameters remained significantly improved compared with vehicle: 90 min
[1]; sc
  Doses that increased both ventilatory parameters and respiration: ≥ 0.25 mg/kg
[5]
  Maximum blood levels: 840 ng/mL
[6]
  Blood gas levels: did not improve
  Lactate: did not show any significant improvement
  Time to improvement in blood gas levels: 45 min and < 30 min
  Time to reversal of respiratory acidosis (pCO2, HCO3-, pH, lactate): ≤ 30 minutes
  pCO2, pH and HCO3-: improved
[6]; sc
  Effect on pO2 levels: Neither intoxication nor 3,4-DAP treatment had an effect on pO2 levels
[7]
  Effect on MV: no changes in MV
  Effect on RR: significantly increased RR
  Effect on TV: concomitant reductions in TV

## Nc1ccnc(F)c1 [2F-4AP, 4-amino-2-fluoropyridine]
[1]
  Effects on ventilatory parameters (MV, TV, RR): indistinguishable from vehicle

## Nc1ccncc1N [amifampridine]
[8]
  Maximum blood levels: 38.6 ± 9.2 ng/mL

## Nc1ccnc(N)c1 [2,4-DAP, 2,4-diaminopyridine]
[1]
  Relative effects on TV versus RR: increased TV and RR by roughly equal proportions
[2]
  Brain penetration: poor brain penetration

## [2H]c1nc([2H])c([2H])c(N)c1[2H] [4-AP-d4, 4-aminopyridine-d4]
[1]
  Relative effects on TV versus RR: increased TV and RR by roughly equal proportions

## Nc1ccncc1 [4-AP, 4-aminopyridine]
[1]
  Relative effects on TV versus RR: increased TV and RR by roughly equal proportions
[2]; not told
  Blood brain barrier permeability relative to 3,4-DAP: approximately sixfold greater
[7]
  Effect on MV: no changes in MV
  Effect on RR: significantly increased RR
  Effect on TV: concomitant reductions in TV

## Nc1c(F)cncc1F [3,5DF-4AP, 4-amino-3,5-difluoropyridine]
[1]
  Effects on ventilatory parameters (MV, TV, RR): indistinguishable from vehicle

From PMC10801772 (The Journal of Pharmacology and Experimental Therapeutics, 2024)
